Measurements from patent US6982257B1, “Vitamin D3 derivative and its production method” (Teijin Limited, priority 1997, dated 2006).

Assays:
[1] = biological target: T1, bovine thymus 1α,25-dihydroxyvitamin D3 receptor (VDR) (Bos taurus, UniProt Q28037); conditions: relative intensity ratio based on 100 for 1α,25-dihydroxyvitamin D3, from the concentration inhibiting [3H]1α,25-dihydroxyvitamin D3 (0.1 nM) binding by 50%
T1 sequence (Q28037 1-426): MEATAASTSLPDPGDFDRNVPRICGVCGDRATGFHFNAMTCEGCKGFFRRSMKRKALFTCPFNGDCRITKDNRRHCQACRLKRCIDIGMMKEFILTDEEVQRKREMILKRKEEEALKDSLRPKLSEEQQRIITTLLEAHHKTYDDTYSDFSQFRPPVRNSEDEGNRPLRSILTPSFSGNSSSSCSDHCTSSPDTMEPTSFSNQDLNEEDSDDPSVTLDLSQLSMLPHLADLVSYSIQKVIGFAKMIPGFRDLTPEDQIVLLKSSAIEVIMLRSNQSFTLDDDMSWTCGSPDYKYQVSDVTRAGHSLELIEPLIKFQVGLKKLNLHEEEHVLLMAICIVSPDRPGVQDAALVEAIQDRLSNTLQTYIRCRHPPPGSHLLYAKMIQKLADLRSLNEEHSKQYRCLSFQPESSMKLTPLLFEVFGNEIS
Method: The content (about 25 mg) of an ampule of a bovine thymus vitamin D receptor kit made by Yamasa Shoyu Ltd. was dissolved in 55 ml of a 0.05 M phosphoric acid-0.5 M potassium buffer solution (pH 7.4). Fifty μl of the ethanol solution of a compound to be tested and 500 μl of the receptor solution were pre-incubated at room temperature for 1 hr. […] To 500 μl of the supernatant, 9.5 ml of a liquid scintillation cocktail (ACS-II) was added, and the radioactivity of the resultant mixture was measured by a liquid scintillation counter.

[2] = test system: HL-60 cell; assay: Differentiation induction of HL-60 cell, nitroblue tetrazolium (NBT) reduction activity; format: cell-based; conditions: HL-60, 4 days culture
Excerpt: Activities of Objective Compounds of the Present Invention on Differentiation Induction effect of HL-60 Cell
HL-60 cell was purchased from a cell bank (Japanese Cancer Research Resource Bank, Cell Number: JCRB 0085). The cell was stored as a frozen storage stock for preventing the change of cell characteristics attributable to successive cultivation. Before the initiation of experiments, the cell was defrosted, and successive cultivation was started for using the cell in the experiments. The cell which had been treated by successive culturing for about one to six months was used for the experiments. The successive culturing was carried out by centrifugally recovering cells from cultivation mixture in suspension culture, and diluting the collected cell concentrate in a fresh culture medium at a ratio of about 1/100 (1−2×10^5 cells/ml). As the culture medium, an RPMI-1640 medium containing 10% fetal bovine serum was used. Successively cultured cells were centrifugally collected, and they were dispersed in a culture medium at the concentration of 2×10^4 cells/ml. The dispersion was seeded into a 24-well culture petri dish at 1 ml/well. An ethanol solution (1×10^−9M to 1×10^−6M) of a compound of the present invention was added to this system at 1 μl/well. Further, regarding 1 α,25(OH)2D3, an ethanol solution of 1×10^−7 M to 1×10^−4 M was added at 1 μl/well, and for the control, ethanol was added at 1 μl/well. After culturing at 37° C. for 4 days under a 5% CO2 atmosphere, the cells were centrifugally collected. Nitroblue tetrazolium (NBT) reduction activity was determined as follows. That is, the collected cells were suspended in a fresh culture medium, and NBT and 12-O-tetradecanoylphorbol-13-acetate were added to the resultant suspension so that their concentrations became 0.1% and 100 nM, respectively. After the mixed suspension was incubated at 37° C. for 25 min, a cytospin sample was prepared. After air drying, it was stained with Kernechtrot, and the ratio of the positive cells of NBT reduction activity was determined under an optical microscope.
Activities of Compounds of the Present Invention on Nitroblue Tetrazolium

## C=C1/C(=C\C=C2/CCC[C@]3(C)[C@@H]([C@@H](C)CCCC(C)(C)O)CC[C@@H]23)C[C@H](O)[C@@H](C)[C@@H]1O [Compound (70), (20S)-1α,25-dihydroxy-2β-methyl-3α-vitamin D3]
[1]
  Binding Affinity for VDR: 0.08

## C=C1C(=CC=C2CCCC3(C)C2CCC3C(C)CCCC(C)(C)O)CC(O)C(C)C1O [Compound (6), (20R)-1α,25-dihydroxy-2α-methyl-3α vitamin D3, reference compound]
[1]
  Binding Affinity for VDR: 4

## C=C1/C(=C\C=C2/CCC[C@]3(C)[C@@H]([C@@H](C)CCCC(C)(C)O)CC[C@@H]23)C[C@@H](O)[C@H](C)[C@H]1O [Compound (73), (20S)-1β,25-dihydroxy-2α-methyl-3β-vitamin D3]
[1]
  Binding Affinity for VDR: 0.05

## C=C1C(=CC=C2CCCC3(C)C2CCC3C(C)CCCC(C)(C)O)CC(O)C(C)C1O [Compound (72), (20S)-1α,25-dihydroxy-2α-methyl-3β-vitamin D3]
[2]; concentration 10^−9 M
  Positive cells (%) of nitroblue tetrazolium reduction activity: 96.2 ± 2.0%
[2]; concentration 10^−10 M
  Positive cells (%) of nitroblue tetrazolium reduction activity: 95.7 ± 2.3%
[2]; concentration 10^−11 M
  Positive cells (%) of nitroblue tetrazolium reduction activity: 94.4 ± 1.8%
[2]; concentration 10^−12 M
  Positive cells (%) of nitroblue tetrazolium reduction activity: 3.7 ± 0.8%
[1]
  Binding Affinity for VDR: 1200

## C=C1C(=CC=C2CCCC3(C)C2CCC3C(C)CCCC(C)(C)O)CC(O)C(C)C1O [Compound (3), (20R)-1β,25-dihydroxy-2β-methyl-3β vitamin D3, reference compound]
[1]
  Binding Affinity for VDR: 0.8

## C=C1/C(=C\C=C2/CCC[C@]3(C)[C@@H]([C@@H](C)CCCC(C)(C)O)CC[C@@H]23)C[C@@H](O)[C@@H](C)[C@H]1O [Compound (69), (20S)-1β,25-dihydroxy-2β-methyl-3β-vitamin D3]
[1]
  Binding Affinity for VDR: 0.03

## C=C1C(=CC=C2CCCC3(C)C2CCC3C(C)CCCC(C)(C)O)CC(O)C(C)C1O [Compound (5), (20R)-1β,25-dihydroxy-2α-methyl-3β vitamin D3, reference compound]
[1]
  Binding Affinity for VDR: 0.05

## C=C1/C(=C\C=C2/CCC[C@]3(C)[C@@H]([C@H](C)CCCC(C)(C)O)CC[C@@H]23)C[C@@H](O)C[C@@H]1O [1α,25-(OH)2VD3, 1α,25-dihydroxyvitamin D3, reference compound]
[2]; concentration 10^−7 M
  Positive cells (%) of nitroblue tetrazolium reduction activity: 96.5 ± 1.0%
[2]; concentration 10^−8 M
  Positive cells (%) of nitroblue tetrazolium reduction activity: 86.1 ± 2.6%
[2]; concentration 10^−9 M
  Positive cells (%) of nitroblue tetrazolium reduction activity: 36.8 ± 2.0%
[2]; concentration 10^−10 M
  Positive cells (%) of nitroblue tetrazolium reduction activity: 4.3 ± 1.2%

## C=C1/C(=C\C=C2/CCC[C@]3(C)[C@@H]([C@@H](C)CCCC(C)(C)O)CC[C@@H]23)C[C@H](O)[C@H](C)[C@@H]1O [Compound (74), (20S)-1α,25-dihydroxy-2α-methyl-3α-vitamin D3]
[2]; concentration 10^−9 M
  Positive cells (%) of nitroblue tetrazolium reduction activity: 96.4 ± 1.4%
[2]; concentration 10^−10 M
  Positive cells (%) of nitroblue tetrazolium reduction activity: 16.7 ± 1.1%
[2]; concentration 10^−11 M
  Positive cells (%) of nitroblue tetrazolium reduction activity: 17.0 ± 2.3%
[2]; concentration 10^−12 M
  Positive cells (%) of nitroblue tetrazolium reduction activity: 6.4 ± 1.1%
[1]
  Binding Affinity for VDR: 17

## C=C1C(=CC=C2CCCC3(C)C2CCC3C(C)CCCC(C)(C)O)CC(O)C(C)C1O [Compound (7), (20R)-1β,25-dihydroxy-2α-methyl-3α vitamin D3, reference compound]
[1]
  Binding Affinity for VDR: 0.06

## C=C1C(=CC=C2CCCC3(C)C2CCC3C(C)CCCC(C)(C)O)CC(O)C(C)C1O [Compound (2), (20R)-1α,25-dihydroxy-2β-methyl-3α vitamin D3, reference compound]
[1]
  Binding Affinity for VDR: 0.3

## C=C1C(=CC=C2CCCC3(C)C2CCC3C(C)CCCC(C)(C)O)CC(O)C(C)C1O [Compound (4), (20R)-1α,25-dihydroxy-2α-methyl-3β vitamin D3, reference compound]
[1]
  Binding Affinity for VDR: 400

## C=C1/C(=C\C=C2/CCC[C@]3(C)[C@@H]([C@@H](C)CCCC(C)(C)O)CC[C@@H]23)C[C@H](O)[C@H](C)[C@H]1O [Compound (75), (20S)-1β,25-dihydroxy-2α-methyl-3α-vitamin D3]
[1]
  Binding Affinity for VDR: 0.03

## C=C1/C(=C\C=C2/CCC[C@]3(C)[C@@H]([C@@H](C)CCCC(C)(C)O)CC[C@@H]23)C[C@@H](O)[C@@H](C)[C@@H]1O [Compound (68), (20S)-1α,25-dihydroxy-2β-methyl-3β-vitamin D3]
[2]; concentration 10^−9 M
  Positive cells (%) of nitroblue tetrazolium reduction activity: 95.7 ± 1.0%
[2]; concentration 10^−10 M
  Positive cells (%) of nitroblue tetrazolium reduction activity: 57.7 ± 5.0%
[2]; concentration 10^−11 M
  Positive cells (%) of nitroblue tetrazolium reduction activity: 2.8 ± 0.7%
[2]; concentration 10^−12 M
  Positive cells (%) of nitroblue tetrazolium reduction activity: 1.7 ± 0.3%
[1]
  Binding Affinity for VDR: 160

## C=C1/C(=C\C=C2/CCC[C@]3(C)[C@@H]([C@@H](C)CCCC(C)(C)O)CC[C@@H]23)C[C@H](O)[C@@H](C)[C@H]1O [Compound (71), (20S)-1β,25-dihydroxy-2β-methyl-3α-vitamin D3]
[2]; concentration 10^−9 M
  Positive cells (%) of nitroblue tetrazolium reduction activity: 40.5 ± 1.8%
[2]; concentration 10^−10 M
  Positive cells (%) of nitroblue tetrazolium reduction activity: 2.0 ± 1.0%
[2]; concentration 10^−11 M
  Positive cells (%) of nitroblue tetrazolium reduction activity: 1.8 ± 0.8%
[2]; concentration 10^−12 M
  Positive cells (%) of nitroblue tetrazolium reduction activity: 1.5 ± 0.8%
[1]
  Binding Affinity for VDR: 7

## C=C1C(=CC=C2CCCC3(C)C2CCC3C(C)CCCC(C)(C)O)CC(O)C(C)C1O [Compound (1), (20R)-1β,25-dihydroxy-2β-methyl-3β vitamin D3, reference compound]
[1]
  Binding Affinity for VDR: 0.05

## C=C1C(=CC=C2CCCC3(C)C2CCC3C(C)CCCC(C)(C)O)CC(O)C(C)C1O [Compound (65), (20R)-1α,25-dihydroxy-2β-methyl-3β vitamin D3, reference compound]
[1]
  Binding Affinity for VDR: 13
